Test results reported in patent publication US20210246140A1, “MODULATORS OF METABOTROPIC GLUTAMATE RECEPTOR 2” (The General Hospital Corporation, priority 2020, published 2021).

Columns and labels:
[1] = Microsomal stability in rat liver microsomes; format: in vitro ADME
Experimental: Compound stability in rat liver microsomal was tested using a published method. [see refs. 57, 58] In a vial 1.5 μL of test compound (1 mM in DMSO stock solution) was mixed with 432 μL of PBS (50 mM, pH 7.4). The mixture was kept at 37° C. for 10 min before adding 13 μL of Sprague-Dawley rat liver microsomes (Sigma-Aldrich, No. M9066). The vial was vortexed and shaken at 37° C. for 5 min, followed by addition of 50 μL of NADPH (10 mM in PBS stock solution) to start the reaction. The mixture was incubated at 37° C. for 0, 5, 15, 30, 45 min, respectively, and quenched by addition of 250 μL of ice-cold acetonitrile and 3 μL of the internal standard (0.5 mM in DMSO). The quenched solutions were centrifuged at 10,000 g for 15 min. The supernatant was collected and quantitated by RP-HPLC (Phenomenex Luna® column 5 μC18, 100 Å, 250×4.6 mm; 0.7 mL/min, 15 min, Acetonitrile/water/0.1% FA). The procedure was repeated three times for each compound. Compound 1-OH was used as internal standard and compound ML128 served as positive control. The percentage of remaining intact test-compound was calculated by (peak area at the specific time point)/(peak area at 0 min)×100%. Each procedure was repeated three times (FIGS. 8 and 9). For FIG. 8, the natural logarithm (In) of peak area ratio (test compound peak area/internal standard peak area) was plotted against time and the gradient of the line was determined. Subsequently, the half-life (t1/2) min was calculated as 0.693/k, where the elimination rate constant (k) equals to negative gradient. V (μL/mg) was obtained as a ratio of volume of incubation (μL)/protein in the incubation (mg). Finally, the intrinsic clearance (CLint) (μL/min/mg protein) was calculated as V×0.693/t1/2.
(§1) The in vitro plasma and liver microsomal stability of 1 and 2 were studied by incubating the test compounds in rat serum and rat liver microsomes as well as NADPH cofactor, respectively, using previously published methods [see refs. 57, 58]. […] The solution stability of 1 was evaluated with buffer solutions at pH 5.0, 7.4 and 9.4, respectively (FIGS. 10 and 20) [see refs. 61].

[2] = PAMPA-BBB (parallel artificial membrane permeation assay); details: pH 7.4, 18 h
[3] = Solution stability in aqueous buffers at different pH; format: physicochemical; details: buffer solutions at pH 5.0, 7.4 and 9.4, 37° C., 2 h
Experimental: The solution stability of 3 was examined in the aqueous buffers at different pH values. 50 μL of compound in DMSO (0.25 mM) was added to the sodium acetate-KCl—HCl buffer (950 μL, 20 mM, pH 5.0), phosphate buffer (950 μL, 20 mM, pH 7.4), and boric acid-KCl—NaOH buffer (950 μL, 20 mM, pH 9.4), respectively. The mixtures were incubated for 2 h at 37° C. and analyzed by HPLC (Phenomenex Luna® column, 5 μm C18, 100 Å, 250×4.6 mm, eluents: CH3CN/H2O in 0.1% formic acid).
as §1, with “58]. Diltiazem and ML128 (a mGluR4 PAM) [see refs. 59, 60] were used as co-assay QC controls for plasma and microsomal stability assays, respectively, to ensure that the assays were operating properly, and that the activity of the plasma and microsomes were consistent with established criteria.” for “58].”

[4] = system: other mGlu receptors (mGluR1, mGluR3, mGluR4, mGluR5, mGluR6, mGluR8); assay: Selectivity among mGluR subtypes (Ca2+ mobilization assay and cAMP assay); format: cell-based; details: mGluR1 and mGluR5 by Ca2+ mobilization; mGluR3, 4, 6, 8 by cAMP assay
Experimental: The Gq coupled receptors (mGluR1 and mGluR5) were tested using Ca^2+ mobilization assay. mGluR1 stable cell lines were plated into poly-L-lysine (PLL) coated 384-well black clear bottom cell culture plates with complete Basal Medium Eagle (BME) buffer, which was composed of 10% dialyzed FBS, penicillin G (100 units/mL), streptomycin (100 μg/mL) with tetracycline (1 μg/mL) at density of 20,000 cells in 40 μl per well for overnight. On the other hand, HEK-293 Cells transiently transfected using the calcium phosphate method with cDNA encoding mGluR5 for 40 h were plated into the plate with complete BME at density of 20,000 cells in 40 μL per well for 8 h. mGluR1 stable cells or cells transiently expressing mGluR5 were incubated with 20 μL of the calcium dye (FLIPR Calcium 4 Assay Kit; Molecular Devices) diluted in the assay buffer (1×FIBSS, 2.5 mM probenecid, and 20 mM HEPES, pH 7.4) for 45 min at 37° C. and 15 min at room temperature. To measure agonist activity of receptors, the drug plates were prepared with different concentrations of test or reference compound at 3 times the desired final concentration. […] Once loaded in FLIPR (Molecular Devices), basal fluorescence was measured for 10 s, then 10 μL of test or reference compounds were added, followed by continued fluorescence measurement for an additional 120 s. […]

mGluR2 = molecular target: T1, mGluR2 (Homo sapiens, UniProt Q14416); details: calcium flux, Gα15 or Gα16 forced coupling; read-out: previously reported mGluR2 EC50; cited from earlier work
T1 construct: expressed in transfected cells
T1 sequence (Q14416 19-872): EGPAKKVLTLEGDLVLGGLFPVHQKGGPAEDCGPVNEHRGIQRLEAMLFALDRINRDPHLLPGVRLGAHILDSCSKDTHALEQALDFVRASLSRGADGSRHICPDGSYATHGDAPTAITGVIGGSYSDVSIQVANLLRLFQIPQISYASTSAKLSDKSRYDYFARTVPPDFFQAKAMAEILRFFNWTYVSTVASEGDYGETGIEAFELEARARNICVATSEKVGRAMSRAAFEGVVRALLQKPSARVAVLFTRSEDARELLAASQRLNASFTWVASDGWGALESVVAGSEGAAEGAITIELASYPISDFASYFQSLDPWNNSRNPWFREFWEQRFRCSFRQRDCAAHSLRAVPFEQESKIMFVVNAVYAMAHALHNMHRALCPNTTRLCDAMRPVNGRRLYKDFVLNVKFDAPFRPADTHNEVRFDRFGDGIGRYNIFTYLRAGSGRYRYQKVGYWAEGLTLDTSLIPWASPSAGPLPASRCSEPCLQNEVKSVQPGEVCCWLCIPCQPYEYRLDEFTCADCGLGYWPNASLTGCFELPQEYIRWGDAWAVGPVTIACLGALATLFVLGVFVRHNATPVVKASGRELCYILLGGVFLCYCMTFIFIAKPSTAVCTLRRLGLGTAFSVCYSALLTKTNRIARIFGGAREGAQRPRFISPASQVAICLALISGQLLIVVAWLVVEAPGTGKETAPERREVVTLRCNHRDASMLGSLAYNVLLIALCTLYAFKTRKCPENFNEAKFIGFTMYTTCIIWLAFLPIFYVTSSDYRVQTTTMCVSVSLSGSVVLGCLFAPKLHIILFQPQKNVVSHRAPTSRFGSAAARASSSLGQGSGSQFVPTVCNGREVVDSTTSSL

COc1cc(C(F)(F)F)ccc1C1CCN(Cc2nc3ncccc3n2C)CC1 [Compound 1]
microsomal CLint at 3 µM ([1]; Sprague-Dawley, pH 7.4, rat liver microsomes, read-out: intrinsic clearance CLint): 17.9 µL/min/mg | microsomal stability ([1]; rat liver microsomes with NADPH, ML128 as positive control): reasonable microsomal stability | effective permeability Pe [2]: 9.2 ×10⁻⁶ cm/s | solution stability [3]: relatively stable | selectivity against other mGlu receptor subtypes [4]: > 100 fold | EC50 (mGluR2): 13 nM
